Assay [1] in a line: Activity at metallo-beta-lactamase L1 (unknown origin) by fluorescence spectrum analysis.
Assay [2] is described as follows: Activity at beta-lactamase type 2 (unknown origin) by fluorescence spectrum analysis.
Assay [3] in a line: Activity at metallo-beta-lactamase L1 (unknown origin) by UV-vis spectrophotometry analysis.
A short description of assay [4]: Activity at beta-lactamase type 2 (unknown origin) by UV-vis spectrophotometry analysis.

One may read the Km as the substrate concentration at which the rate is half of its maximum. What is called kcat is the maximal rate divided by the concentration of active sites. In the case of `O=C(O)C1=C(CSc2ccc(NC(=O)c3cc4ccccc4oc3=O)cc2)CS[C@@H]2[C@H](NC(=O)c3cc4ccccc4oc3=O)C(=O)N12`, the Michaelis constant (Km) in assay [1] was 18 µM; in assay [2], 11 µM; in assay [3], 13 µM; in assay [4] it was 18 µM. Also, the kcat is 5 s⁻¹ in assay [1], 17 s⁻¹ in assay [2], 5 s⁻¹ in assay [3] and 12 s⁻¹ in assay [4].

The record behind these values is ChEMBL document CHEMBL2331207, “A novel fluorogenic substrate for dinuclear Zn(II)-containing metallo-β-lactamases” (Bioorg Med Chem Lett, 2013).
